Measurements published in ChEMBL document CHEMBL1649268, “Comparative in vitro activity profile of oritavancin against recent gram-positive clinical isolates” (2009).
≈ marks a conversion by molar mass, not a printed value.

Columns and labels:
[1] = test system: Streptococcus pneumoniae; experiment: Antimicrobial activity against Streptococcus pneumoniae clinical isolates by broth microdilution method in presence of clavulanate; assay type: functional
[2] = test system: Streptococcus pneumoniae; experiment: Antimicrobial activity against penicillin-susceptible Streptococcus pneumoniae clinical isolates by broth microdilution method in presence of clavulanate; assay type: functional
[3] = test system: Streptococcus pneumoniae; experiment: Antimicrobial activity against penicillin-intermediate Streptococcus pneumoniae clinical isolates by broth microdilution method in presence of clavulanate; assay type: functional
[4] = test system: Streptococcus pneumoniae; experiment: Antimicrobial activity against penicillin-resistant Streptococcus pneumoniae clinical isolates by broth microdilution method in presence of clavulanate; assay type: functional
[5] = test system: Streptococcus pneumoniae; experiment: Antimicrobial activity against Streptococcus pneumoniae clinical isolates assessed as percent susceptible isolates by broth microdilution method in presence of clavulanate; assay type: functional
[6] = test system: Streptococcus pneumoniae; experiment: Antimicrobial activity against penicillin-susceptible Streptococcus pneumoniae clinical isolates assessed as percent susceptible isolates by broth microdilution method in presence of clavulanate; assay type: functional
[7] = test system: Streptococcus pneumoniae; experiment: Antimicrobial activity against penicillin-intermediate Streptococcus pneumoniae clinical isolates assessed as percent susceptible isolates by broth microdilution method in presence of clavulanate; assay type: functional
[8] = test system: Streptococcus pneumoniae; experiment: Antimicrobial activity against penicillin-resistant Streptococcus pneumoniae clinical isolates assessed as percent susceptible isolates by broth microdilution method in presence of clavulanate; assay type: functional
[9] = test system: Streptococcus pneumoniae; experiment: Antimicrobial activity against Streptococcus pneumoniae clinical isolates assessed as resistant isolates by broth microdilution method in presence of clavulanate; assay type: functional
[10] = test system: Streptococcus pneumoniae; experiment: Antimicrobial activity against penicillin-susceptible Streptococcus pneumoniae clinical isolates assessed as resistant isolates by broth microdilution method in presence of clavulanate; assay type: functional
[11] = test system: Streptococcus pneumoniae; experiment: Antimicrobial activity against penicillin-intermediate Streptococcus pneumoniae clinical isolates assessed as resistant isolates by broth microdilution method in presence of clavulanate; assay type: functional
[12] = test system: Streptococcus pneumoniae; experiment: Antimicrobial activity against penicillin-resistant Streptococcus pneumoniae clinical isolates assessed as resistant isolates by broth microdilution method in presence of clavulanate; assay type: functional
[13] = test system: Streptococcus pneumoniae; experiment: Antimicrobial activity against Streptococcus pneumoniae clinical isolates by broth microdilution method; assay type: functional
[14] = test system: Streptococcus pneumoniae; experiment: Antimicrobial activity against penicillin-susceptible Streptococcus pneumoniae clinical isolates by broth microdilution method; assay type: functional
[15] = test system: Streptococcus pneumoniae; experiment: Antimicrobial activity against penicillin-intermediate Streptococcus pneumoniae clinical isolates by broth microdilution method; assay type: functional
[16] = test system: Streptococcus pneumoniae; experiment: Antimicrobial activity against penicillin-resistant Streptococcus pneumoniae clinical isolates by broth microdilution method; assay type: functional
[17] = test system: Streptococcus; experiment: Antimicrobial activity against erythromycin-nonsusceptible Streptococcus Group F clinical isolates assessed as percent susceptible isolates by broth microdilution method; assay type: functional
[18] = test system: Streptococcus; experiment: Antimicrobial activity against erythromycin-susceptible Streptococcus Group F clinical isolates assessed as percent susceptible isolates by broth microdilution method; assay type: functional
[19] = test system: Streptococcus; experiment: Antimicrobial activity against Streptococcus Group F clinical isolates assessed as percent susceptible isolates by broth microdilution method; assay type: functional
[20] = Antimicrobial activity against erythromycin-nonsusceptible Streptococcus Group G clinical isolates assessed as percent susceptible isolates by broth microdilution method; assay type: functional, Streptococcus sp. 'group G'
[21] = Antimicrobial activity against erythromycin-susceptible Streptococcus Group G clinical isolates assessed as percent susceptible isolates by broth microdilution method; assay type: functional, Streptococcus sp. 'group G'
[22] = Antimicrobial activity against Streptococcus Group G clinical isolates assessed as percent susceptible isolates by broth microdilution method; assay type: functional, Streptococcus sp. 'group G'
[23] = Antimicrobial activity against erythromycin-nonsusceptible Streptococcus Group C clinical isolates assessed as percent susceptible isolates by broth microdilution method; assay type: functional, Streptococcus sp. 'group C'
[24] = Antimicrobial activity against erythromycin-susceptible Streptococcus Group C clinical isolates assessed as percent susceptible isolates by broth microdilution method; assay type: functional, Streptococcus sp. 'group C'
[25] = Antimicrobial activity against Streptococcus Group C clinical isolates assessed as percent susceptible isolates by broth microdilution method; assay type: functional, Streptococcus sp. 'group C'
[26] = test system: Streptococcus pyogenes; experiment: Antimicrobial activity against erythromycin-nonsusceptible Streptococcus pyogenes clinical isolates assessed as percent susceptible isolates by broth microdilution method; assay type: functional
[27] = test system: Streptococcus pyogenes; experiment: Antimicrobial activity against erythromycin-susceptible Streptococcus pyogenes clinical isolates assessed as percent susceptible isolates by broth microdilution method; assay type: functional
[28] = test system: Streptococcus pyogenes; experiment: Antimicrobial activity against Streptococcus pyogenes clinical isolates assessed as percent susceptible isolates by broth microdilution method; assay type: functional
[29] = test system: Streptococcus agalactiae; experiment: Antimicrobial activity against erythromycin-nonsusceptible Streptococcus agalactiae clinical isolates assessed as percent susceptible isolates by broth microdilution method; assay type: functional
[30] = test system: Streptococcus agalactiae; experiment: Antimicrobial activity against erythromycin-susceptible Streptococcus agalactiae clinical isolates assessed as percent susceptible isolates by broth microdilution method; assay type: functional
[31] = test system: Streptococcus agalactiae; experiment: Antimicrobial activity against Streptococcus agalactiae clinical isolates assessed as percent susceptible isolates by broth microdilution method; assay type: functional
[32] = test system: Streptococcus; experiment: Antimicrobial activity against Streptococcus Group F clinical isolates assessed as resistant isolates by broth microdilution method; assay type: functional
[33] = test system: Streptococcus; experiment: Antimicrobial activity against erythromycin-susceptible Streptococcus Group F clinical isolates assessed as resistant isolates by broth microdilution method; assay type: functional
[34] = test system: Streptococcus; experiment: Antimicrobial activity against erythromycin-nonsusceptible Streptococcus Group F clinical isolates assessed as resistant isolates by broth microdilution method; assay type: functional
[35] = test system: Streptococcus pneumoniae; experiment: Antimicrobial activity against Streptococcus pneumoniae clinical isolates assessed as percent susceptible isolates by broth microdilution method; assay type: functional
[36] = test system: Streptococcus pneumoniae; experiment: Antimicrobial activity against penicillin-susceptible Streptococcus pneumoniae clinical isolates assessed as percent susceptible isolates by broth microdilution method; assay type: functional
[37] = test system: Streptococcus pneumoniae; experiment: Antimicrobial activity against penicillin-intermediate Streptococcus pneumoniae clinical isolates assessed as percent susceptible isolates by broth microdilution method; assay type: functional
[38] = Antimicrobial activity against erythromycin-nonsusceptible Streptococcus Group G clinical isolates assessed as resistant isolates by broth microdilution method; assay type: functional, Streptococcus sp. 'group G'
[39] = Antimicrobial activity against erythromycin-susceptible Streptococcus Group G clinical isolates assessed as resistant isolates by broth microdilution method; assay type: functional, Streptococcus sp. 'group G'
[40] = Antimicrobial activity against Streptococcus Group G clinical isolates assessed as resistant isolates by broth microdilution method; assay type: functional, Streptococcus sp. 'group G'
[41] = Antimicrobial activity against erythromycin-nonsusceptible Streptococcus Group C clinical isolates assessed as resistant isolates by broth microdilution method; assay type: functional, Streptococcus sp. 'group C'
[42] = Antimicrobial activity against erythromycin-susceptible Streptococcus Group C clinical isolates assessed as resistant isolates by broth microdilution method; assay type: functional, Streptococcus sp. 'group C'
[43] = Antimicrobial activity against Streptococcus Group C clinical isolates assessed as resistant isolates by broth microdilution method; assay type: functional, Streptococcus sp. 'group C'
[44] = test system: Streptococcus pyogenes; experiment: Antimicrobial activity against erythromycin-nonsusceptible Streptococcus pyogenes clinical isolates assessed as resistant isolates by broth microdilution method; assay type: functional
[45] = test system: Streptococcus pyogenes; experiment: Antimicrobial activity against erythromycin-susceptible Streptococcus pyogenes clinical isolates assessed as resistant isolates by broth microdilution method; assay type: functional
[46] = test system: Streptococcus pyogenes; experiment: Antimicrobial activity against Streptococcus pyogenes clinical isolates assessed as resistant isolates by broth microdilution method; assay type: functional
[47] = test system: Streptococcus agalactiae; experiment: Antimicrobial activity against erythromycin-nonsusceptible Streptococcus agalactiae clinical isolates assessed as resistant isolates by broth microdilution method; assay type: functional
[48] = test system: Streptococcus agalactiae; experiment: Antimicrobial activity against erythromycin-susceptible Streptococcus agalactiae clinical isolates assessed as resistant isolates by broth microdilution method; assay type: functional
[49] = test system: Streptococcus agalactiae; experiment: Antimicrobial activity against Streptococcus agalactiae clinical isolates assessed as resistant isolates by broth microdilution method; assay type: functional
[50] = test system: Streptococcus pneumoniae; experiment: Antimicrobial activity against Streptococcus pneumoniae clinical isolates assessed as resistant isolates by broth microdilution method; assay type: functional
[51] = test system: Streptococcus; experiment: Antimicrobial activity against erythromycin-nonsusceptible Streptococcus Group F clinical isolates by broth microdilution method; assay type: functional
[52] = test system: Streptococcus; experiment: Antimicrobial activity against erythromycin-susceptible Streptococcus Group F clinical isolates by broth microdilution method; assay type: functional
[53] = test system: Streptococcus; experiment: Antimicrobial activity against Streptococcus Group F clinical isolates by broth microdilution method; assay type: functional
[54] = Antimicrobial activity against erythromycin-nonsusceptible Streptococcus Group G clinical isolates by broth microdilution method; assay type: functional; conditions: Streptococcus sp. 'group G'
[55] = Antimicrobial activity against erythromycin-susceptible Streptococcus Group G clinical isolates by broth microdilution method; assay type: functional; conditions: Streptococcus sp. 'group G'
[56] = Antimicrobial activity against Streptococcus Group G clinical isolates by broth microdilution method; assay type: functional; conditions: Streptococcus sp. 'group G'
[57] = Antimicrobial activity against erythromycin-nonsusceptible Streptococcus Group C clinical isolates by broth microdilution method; assay type: functional; conditions: Streptococcus sp. 'group C'
[58] = Antimicrobial activity against erythromycin-susceptible Streptococcus Group C clinical isolates by broth microdilution method; assay type: functional; conditions: Streptococcus sp. 'group C'
[59] = Antimicrobial activity against Streptococcus Group C clinical isolates by broth microdilution method; assay type: functional; conditions: Streptococcus sp. 'group C'
[60] = test system: Streptococcus pyogenes; experiment: Antimicrobial activity against erythromycin-nonsusceptible Streptococcus pyogenes clinical isolates by broth microdilution method; assay type: functional
[61] = test system: Streptococcus pyogenes; experiment: Antimicrobial activity against erythromycin-susceptible Streptococcus pyogenes clinical isolates by broth microdilution method; assay type: functional
[62] = test system: Streptococcus pyogenes; experiment: Antimicrobial activity against Streptococcus pyogenes clinical isolates by broth microdilution method; assay type: functional
[63] = test system: Streptococcus agalactiae; experiment: Antimicrobial activity against erythromycin-nonsusceptible Streptococcus agalactiae clinical isolates by broth microdilution method; assay type: functional
[64] = test system: Streptococcus agalactiae; experiment: Antimicrobial activity against erythromycin-susceptible Streptococcus agalactiae clinical isolates by broth microdilution method; assay type: functional
[65] = test system: Streptococcus agalactiae; experiment: Antimicrobial activity against Streptococcus agalactiae clinical isolates by broth microdilution method; assay type: functional

CC1(C)S[C@@H]2[C@H](NC(=O)[C@H](N)c3ccc(O)cc3)C(=O)N2[C@H]1C(=O)O [AMOXICILLIN]
MIC90 [1]: 2 µg/mL
MIC90 [2]: 0.03 µg/mL
MIC90 [3]: 1 µg/mL
MIC90 [4]: 8 µg/mL
Activity [5]: 93.1%
Activity [6]: 100%
Activity [7]: 99.5%
Activity [8]: 53.4%
Activity [9]: 1.5%
Activity [10]: 0%
Activity [11]: 0%
Activity [12]: 10.1%

CC1(C)S[C@@H]2[C@H](NC(=O)Cc3ccccc3)C(=O)N2[C@H]1C(=O)O [PENICILLIN G]
MIC90 [13]: 2 µg/mL (≈ 5.98 µM)
MIC [14]: ≤ 0.03 µg/mL
MIC90 [14]: ≤ 0.03 µg/mL
MIC90 [15]: 1 µg/mL (≈ 2.99 µM)
MIC90 [16]: 4 µg/mL (≈ 12 µM)
Activity [17]: 100%
Activity [18]: 100%
Activity [19]: 100%
Activity [20]: 100%
Activity [21]: 100%
Activity [22]: 100%
Activity [23]: 100%
Activity [24]: 100%
Activity [25]: 100%
Activity [26]: 100%
Activity [27]: 100%
Activity [28]: 100%
Activity [29]: 100%
Activity [30]: 100%
Activity [31]: 100%
Activity [32]: 0%
Activity [33]: 0%
Activity [34]: 0%
Activity [35]: 64%
Activity [36]: 100%
Activity [37]: 0%
Activity [38]: 0%
Activity [39]: 0%
Activity [40]: 0%
Activity [41]: 0%
Activity [42]: 0%
Activity [43]: 0%
Activity [44]: 0%
Activity [45]: 0%
Activity [46]: 0%
Activity [47]: 0%
Activity [48]: 0%
Activity [49]: 0%
Resistant isolates [50]: 14.7%
MIC90 [51]: 0.03 µg/mL (≈ 0.0897 µM)
MIC90 [52]: 0.06 µg/mL (≈ 0.179 µM)
MIC90 [53]: 0.06 µg/mL (≈ 0.179 µM)
MIC90 [54]: 0.03 µg/mL (≈ 0.0897 µM)
MIC90 [55]: 0.06 µg/mL (≈ 0.179 µM)
MIC90 [56]: 0.06 µg/mL (≈ 0.179 µM)
MIC90 [57]: 0.03 µg/mL (≈ 0.0897 µM)
MIC90 [58]: 0.06 µg/mL (≈ 0.179 µM)
MIC90 [59]: 0.06 µg/mL (≈ 0.179 µM)
MIC90 [60]: 0.03 µg/mL (≈ 0.0897 µM)
MIC90 [61]: ≤ 0.03 µg/mL
MIC90 [62]: ≤ 0.03 µg/mL
MIC90 [63]: 0.06 µg/mL (≈ 0.179 µM)
MIC90 [64]: 0.06 µg/mL (≈ 0.179 µM)
MIC90 [65]: 0.06 µg/mL (≈ 0.179 µM)
